Reference: patent US20150105252A1, “SUBSTITUTED PYRAZOLES AS HERBICIDES” (E I DU PONT DE NEMOURS AND COMPANY, priority 2013, published 2015)

What was measured:
[1] = tested on: deadnettle; test: Test D preemergence; assay type: in vivo, Lamium amplexicaule; settings: Preemergence, scale 0 to 100
Method in brief: (§1)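 Visual 0–100 control ratings at 14–21 days in a controlled growth environment. Application preemergence onto silt loam or postemergence onto 2–18 cm seedlings, using a non-phytotoxic solvent formulation with surfactant.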

[2] = tested on: chamomile; test: Test D preemergence; assay type: in vivo, Matricaria inodora; settings: Preemergence, scale 0 to 100
Method in brief: as §1

[3] = tested on: wheat, spring; test: Test D preemergence; assay type: in vivo, Triticum aestivum; settings: Preemergence, scale 0 to 100
Method in brief: as §1

[4] = tested on: wheat, winter; test: Test D preemergence; assay type: in vivo, Triticum aestivum; settings: Preemergence, scale 0 to 100
Method in brief: as §1

[5] = tested on: field violet; test: Test D postemergence; assay type: in vivo, Viola arvensis; settings: scale 0 to 100
Method in brief: as §1

[6] = tested on: buckwheat, wild; test: Test D postemergence; assay type: in vivo, Polygonum convolvulus; settings: scale 0 to 100
Method in brief: as §1

[7] = tested on: pigweed; test: Test D postemergence; assay type: in vivo, Amaranthus retroflexus; settings: scale 0 to 100
Method in brief: as §1

[8] = tested on: foxtail, green; test: Test D preemergence; assay type: in vivo, Setaria viridis; settings: Preemergence, scale 0 to 100
Method in brief: as §1

[9] = tested on: deadnettle; test: Test D postemergence; assay type: in vivo, Lamium amplexicaule; settings: scale 0 to 100
Method in brief: as §1

[10] = tested on: radish, wild; test: Test D preemergence; assay type: in vivo, Raphanus raphanistrum; settings: Preemergence, scale 0 to 100
Method in brief: as §1

[11] = tested on: pigweed; test: Test D preemergence; assay type: in vivo, Amaranthus retroflexus; settings: Preemergence, scale 0 to 100
Method in brief: as §1

[12] = tested on: lambsquarters; test: Test D preemergence; assay type: in vivo, Chenopodium album; settings: Preemergence, scale 0 to 100
Method in brief: as §1

[13] = tested on: canarygrass; test: Test D postemergence; assay type: in vivo, Phalaris minor; settings: scale 0 to 100
Method in brief: as §1

[14] = tested on: oat, wild; test: Test D postemergence; assay type: in vivo, Avena fatua; settings: scale 0 to 100
Method in brief: as §1

[15] = tested on: mustard, wild; test: Test D postemergence; assay type: in vivo, Sinapis arvensis; settings: scale 0 to 100
Method in brief: as §1

[16] = tested on: barley, winter; test: Test D postemergence; assay type: in vivo, Hordeum vulgare; settings: scale 0 to 100
Method in brief: as §1

[17] = tested on: barley, spring; test: Test D postemergence; assay type: in vivo, Hordeum vulgare; settings: scale 0 to 100
Method in brief: as §1

[18] = tested on: barley, winter; test: Test D preemergence; assay type: in vivo, Hordeum vulgare; settings: Preemergence, scale 0 to 100
Method in brief: as §1

[19] = tested on: barley, spring; test: Test D preemergence; assay type: in vivo, Hordeum vulgare; settings: Preemergence, scale 0 to 100
Method in brief: as §1

[20] = tested on: bromegrass, downy; test: Test D preemergence; assay type: in vivo, Bromus tectorum; settings: Preemergence, scale 0 to 100
Method in brief: as §1

## CCCc1cc(C(=O)NC(C)C)nn1Cc1cc(C(F)(F)F)nn1C [Compound 201]
[1]; 31 g ai/ha
  Plant response rating, Deadnettle: 100
[1]; 62 g ai/ha
  Plant response rating, Deadnettle: 100
[1]; 125 g ai/ha
  Plant response rating, Deadnettle: 100
[1]; 250 g ai/ha
  Plant response rating, Deadnettle: 100
[2]; 31 g ai/ha
  Plant response rating, Chamomile: 50
[2]; 62 g ai/ha
  Plant response rating, Chamomile: 100
[2]; 125 g ai/ha
  Plant response rating, Chamomile: 100
[2]; 250 g ai/ha
  Plant response rating, Chamomile: 100
[3]; 62 g ai/ha
  Plant response rating, Wheat, Spring: 55
[3]; 125 g ai/ha
  Plant response rating, Wheat, Spring: 75
[3]; 250 g ai/ha
  Plant response rating, Wheat, Spring: 100
[4]; 62 g ai/ha
  Plant response rating, Wheat, Winter: 40
[4]; 125 g ai/ha
  Plant response rating, Wheat, Winter: 70
[4]; 250 g ai/ha
  Plant response rating, Wheat, Winter: 95
[5]; Postemergence, 31 g ai/ha
  Field Violet plant response rating: 55
[5]; Postemergence, 125 g ai/ha
  Field Violet plant response rating: 65
[5]; Postemergence, 250 g ai/ha
  Field Violet plant response rating: 75
[5]; postemergence, 62 g ai/ha
  Field Violet plant response rating: 55
[6]; Postemergence, 31 g ai/ha
  Buckwheat, Wild plant response rating: 50
[6]; Postemergence, 125 g ai/ha
  Buckwheat, Wild plant response rating: 65
[6]; Postemergence, 250 g ai/ha
  Buckwheat, Wild plant response rating: 70
[6]; postemergence, 62 g ai/ha
  Buckwheat, Wild plant response rating: 50
[7]; Postemergence, 31 g ai/ha
  Pigweed plant response rating: 70
[7]; Postemergence, 125 g ai/ha
  Pigweed plant response rating: 75
[7]; Postemergence, 250 g ai/ha
  Pigweed plant response rating: 80
[7]; postemergence, 62 g ai/ha
  Pigweed plant response rating: 70
[8]; 62 g ai/ha
  Plant response rating, Foxtail, Green: 100
[8]; 125 g ai/ha
  Plant response rating, Foxtail, Green: 100
[8]; 250 g ai/ha
  Plant response rating, Foxtail, Green: 100
[9]; Postemergence, 31 g ai/ha
  Deadnettle plant response rating: 55
[9]; Postemergence, 125 g ai/ha
  Deadnettle plant response rating: 60
[9]; Postemergence, 250 g ai/ha
  Deadnettle plant response rating: 65
[9]; postemergence, 62 g ai/ha
  Deadnettle plant response rating: 55
[10]; 62 g ai/ha
  Plant response rating, Radish, Wild: 100
[10]; 125 g ai/ha
  Plant response rating, Radish, Wild: 100
[10]; 250 g ai/ha
  Plant response rating, Radish, Wild: 100
[11]; 62 g ai/ha
  Plant response rating, Pigweed: 80
[11]; 125 g ai/ha
  Plant response rating, Pigweed: 100
[11]; 250 g ai/ha
  Plant response rating, Pigweed: 100
[12]; 62 g ai/ha
  Plant response rating, Lambsquarters: 90
[12]; 125 g ai/ha
  Plant response rating, Lambsquarters: 100
[12]; 250 g ai/ha
  Plant response rating, Lambsquarters: 100
[13]; Postemergence, 31 g ai/ha
  Canarygrass plant response rating: 15
[13]; Postemergence, 125 g ai/ha
  Canarygrass plant response rating: 20
[13]; Postemergence, 250 g ai/ha
  Canarygrass plant response rating: 60
[13]; postemergence, 62 g ai/ha
  Canarygrass plant response rating: 15
[14]; Postemergence, 31 g ai/ha
  Oat, Wild plant response rating: 25
[14]; Postemergence, 125 g ai/ha
  Oat, Wild plant response rating: 50
[14]; Postemergence, 250 g ai/ha
  Oat, Wild plant response rating: 70
[14]; postemergence, 62 g ai/ha
  Oat, Wild plant response rating: 25
[15]; Postemergence, 31 g ai/ha
  Mustard, Wild plant response rating: 75
[15]; Postemergence, 125 g ai/ha
  Mustard, Wild plant response rating: 85
[15]; Postemergence, 250 g ai/ha
  Mustard, Wild plant response rating: 90
[15]; postemergence, 62 g ai/ha
  Mustard, Wild plant response rating: 75
[16]; Postemergence, 31 g ai/ha
  Barley, Winter plant response rating: 20
[16]; Postemergence, 125 g ai/ha
  Barley, Winter plant response rating: 25
[16]; Postemergence, 250 g ai/ha
  Barley, Winter plant response rating: 35
[16]; postemergence, 62 g ai/ha
  Barley, Winter plant response rating: 20
[17]; Postemergence, 31 g ai/ha
  Barley, Spring plant response rating: 25
[17]; Postemergence, 125 g ai/ha
  Barley, Spring plant response rating: 25
[17]; Postemergence, 250 g ai/ha
  Barley, Spring plant response rating: 40
[17]; postemergence, 62 g ai/ha
  Barley, Spring plant response rating: 25
[18]; 31 g ai/ha
  Plant response rating, Barley, Winter: 25
[18]; 62 g ai/ha
  Plant response rating, Barley, Winter: 35
[18]; 125 g ai/ha
  Plant response rating, Barley, Winter: 45
[18]; 250 g ai/ha
  Plant response rating, Barley, Winter: 100
[19]; 31 g ai/ha
  Plant response rating, Barley, Spring: 0
[19]; 62 g ai/ha
  Plant response rating, Barley, Spring: 20
[19]; 125 g ai/ha
  Plant response rating, Barley, Spring: 65
[19]; 250 g ai/ha
  Plant response rating, Barley, Spring: 75
[20]; 31 g ai/ha
  Plant response rating, Bromegrass, Downy: 20
[20]; 62 g ai/ha
  Plant response rating, Bromegrass, Downy: 60
[20]; 125 g ai/ha
  Plant response rating, Bromegrass, Downy: 70
[20]; 250 g ai/ha
  Plant response rating, Bromegrass, Downy: 100
